One compound from patent US20090304763A1, “Insect Attractant Composition” (priority 2006, published 2009) can be followed below.

One data set relates to mosquitoes. As to the kind of experiment: test comparing acetone alone versus composition: share of available mosquitoes lured. The class given is in vivo. The conditions noted are these: one test; acetone alone versus composition containing acetone, lactic acid and the fatty acid.
The nature of data set [1]: surface energy of water with added acetone. Format: physicochemical. To be noted: 5% addition of acetone to water; water alone 73 dynes/cm. From the text:
While the C3-C12 ketones used in the composition are insufficient by themselves to act as an insect attractant; they provide other valuable properties to the composition. In particular, small-chain ketones have the ability to act as surface-active agents and thus provide the composition with a more consistent droplet diameter and a lower surface energy when the liquid composition is released. For instance, a 5% addition of acetone to water can reduce water surface energy from 73 dynes/cm to 56 dynes/cm. While not wishing to be bound by this theory, it is believed that producing a composition with a consistent and smaller diameter size provides a better presentation to the antennae of the flying insects.

`CC(C)=O` [acetone alone, acetone]: the “average of all available mosquitoes lured” value in the data set with mosquitoes came to 6.7%. The compound also showed a water surface energy in data set [1] of 56 dynes/cm.
